The record followed here is ChEMBL document CHEMBL3414499, “Characterization of two distinct structural classes of selective aldehyde dehydrogenase 1A1 inhibitors” (J Med Chem, 2015).

In assay [1] the target is T1, Retinaldehyde dehydrogenase 3 (Homo sapiens, UniProt P47895).
T1 sequence (P47895 whole entry): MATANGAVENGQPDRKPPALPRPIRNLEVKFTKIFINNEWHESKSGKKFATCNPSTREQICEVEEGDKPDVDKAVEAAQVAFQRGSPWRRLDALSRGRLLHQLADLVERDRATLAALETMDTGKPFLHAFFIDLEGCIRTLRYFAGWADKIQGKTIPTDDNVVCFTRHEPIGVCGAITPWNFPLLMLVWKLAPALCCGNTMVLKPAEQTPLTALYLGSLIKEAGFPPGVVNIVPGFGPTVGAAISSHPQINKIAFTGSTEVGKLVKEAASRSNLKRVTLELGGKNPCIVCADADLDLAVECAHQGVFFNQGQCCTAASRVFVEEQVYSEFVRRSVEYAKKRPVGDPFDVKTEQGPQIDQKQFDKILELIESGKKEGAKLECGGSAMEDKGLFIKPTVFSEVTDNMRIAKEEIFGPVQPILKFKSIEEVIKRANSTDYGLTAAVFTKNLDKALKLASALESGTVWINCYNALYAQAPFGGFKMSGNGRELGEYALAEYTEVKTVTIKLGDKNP
The assay is described as follows: Inhibition of recombinant human ALDH1A3 using propionaldehyde as substrate preincubated for 2 mins with NAD+ followed by substrate addition by UV-Vis spectrophotometric analysis.

Assay [2] concerns the target T2, Aldehyde dehydrogenase X, mitochondrial (Homo sapiens) (UniProt P30837).
T2 sequence (whole entry): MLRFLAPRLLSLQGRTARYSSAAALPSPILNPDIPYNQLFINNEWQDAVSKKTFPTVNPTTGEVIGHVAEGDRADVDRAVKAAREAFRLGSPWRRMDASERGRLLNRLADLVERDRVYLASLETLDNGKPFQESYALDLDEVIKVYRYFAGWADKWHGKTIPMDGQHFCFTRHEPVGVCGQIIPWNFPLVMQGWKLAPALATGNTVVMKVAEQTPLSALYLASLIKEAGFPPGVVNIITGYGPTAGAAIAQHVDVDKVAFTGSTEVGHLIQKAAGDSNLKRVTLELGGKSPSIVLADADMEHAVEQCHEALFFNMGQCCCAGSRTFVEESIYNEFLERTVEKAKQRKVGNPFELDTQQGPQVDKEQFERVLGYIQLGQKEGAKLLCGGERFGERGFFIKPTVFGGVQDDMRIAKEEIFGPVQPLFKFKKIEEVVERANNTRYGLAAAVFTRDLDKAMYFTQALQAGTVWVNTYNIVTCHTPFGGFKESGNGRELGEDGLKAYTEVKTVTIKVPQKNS
The assay can be described thus: Activation of recombinant human ALDH1B1 using propionaldehyde as substrate at 100 uM preincubated for 2 mins with NAD+ followed by substrate addition by UV-Vis spectrophotometric analysis.

Assay [3] concerns the target T3, Retinal dehydrogenase 2 (Homo sapiens) (UniProt O94788).
T3 sequence (whole entry): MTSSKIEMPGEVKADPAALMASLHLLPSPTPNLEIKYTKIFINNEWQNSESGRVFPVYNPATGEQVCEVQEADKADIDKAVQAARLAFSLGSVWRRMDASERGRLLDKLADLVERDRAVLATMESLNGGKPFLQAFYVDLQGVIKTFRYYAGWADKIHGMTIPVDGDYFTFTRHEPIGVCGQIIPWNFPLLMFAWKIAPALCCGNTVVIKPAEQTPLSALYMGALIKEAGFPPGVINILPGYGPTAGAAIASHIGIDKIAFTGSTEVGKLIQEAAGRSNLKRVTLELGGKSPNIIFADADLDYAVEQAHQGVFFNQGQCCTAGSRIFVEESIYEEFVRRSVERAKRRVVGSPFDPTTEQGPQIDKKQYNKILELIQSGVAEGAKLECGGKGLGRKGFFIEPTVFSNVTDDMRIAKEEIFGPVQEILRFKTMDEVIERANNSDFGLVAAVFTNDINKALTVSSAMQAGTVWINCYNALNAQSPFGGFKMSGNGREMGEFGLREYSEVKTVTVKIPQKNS
The assay can be described thus: Activation of recombinant human ALDH1A2 using propionaldehyde as substrate at 100 uM preincubated for 2 mins with NAD+ followed by substrate addition by UV-Vis spectrophotometric analysis.

Assay [4] deals with T2, Aldehyde dehydrogenase X, mitochondrial (Homo sapiens). The assay can be described thus: Effect on recombinant human ALDH1B1 using propionaldehyde as substrate at 20 uM preincubated for 2 mins with NAD+ followed by substrate addition by UV-Vis spectrophotometric analysis.
Assay [5] concerns the target T4, Delta-1-pyrroline-5-carboxylate dehydrogenase, mitochondrial (Homo sapiens) (UniProt P30038).
T4 sequence (whole entry): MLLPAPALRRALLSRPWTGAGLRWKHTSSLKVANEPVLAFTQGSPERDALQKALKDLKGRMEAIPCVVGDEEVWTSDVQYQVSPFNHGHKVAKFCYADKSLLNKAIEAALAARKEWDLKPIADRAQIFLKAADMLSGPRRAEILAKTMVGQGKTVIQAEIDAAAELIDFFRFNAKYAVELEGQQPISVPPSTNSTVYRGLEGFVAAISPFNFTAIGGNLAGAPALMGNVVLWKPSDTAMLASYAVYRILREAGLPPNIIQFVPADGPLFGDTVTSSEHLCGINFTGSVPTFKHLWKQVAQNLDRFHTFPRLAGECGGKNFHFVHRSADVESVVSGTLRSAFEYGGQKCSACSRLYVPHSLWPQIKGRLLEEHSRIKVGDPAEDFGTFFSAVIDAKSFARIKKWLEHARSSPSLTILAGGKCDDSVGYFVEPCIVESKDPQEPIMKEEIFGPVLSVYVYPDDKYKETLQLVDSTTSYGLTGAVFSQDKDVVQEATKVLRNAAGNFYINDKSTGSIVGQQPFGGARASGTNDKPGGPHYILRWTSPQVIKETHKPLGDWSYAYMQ
The assay can be described thus: Effect on human ALDH4A1 at 20 uM preincubated for 2 mins with NAD+ followed by aldehyde substrate addition.

Calls of active or inactive are those of the source. The rule behind the calls is not given here. Some results are limits rather than exact numbers.

As a reminder, the IC50 is the concentration that inhibits the measured activity by half. With `CCCCn1c(CN2CCN(c3cccc(Cl)c3)CC2)nc2c1c(=O)n(C)c(=O)n2C`, the IC50 in assay [1] was over 20 µM. For the compound `Cn1c(=O)c2c(nc(N3CCN(Cc4ccccc4)CC3)n2Cc2cccc(Cl)c2)n(C)c1=O`, the outcome in assay [2] was Active. For `CCCCn1c(CN2CCN(c3ccc(OC)cc3)CC2)nc2c1c(=O)n(C)c(=O)n2C`, the half-inhibitory concentration (IC50) in assay [1] is over 100 µM. Take `Cn1c(=O)c2c(nc(N3CCOCC3)n2Cc2ccccc2F)n(C)c1=O`: in assay [3], the result was Active.

`CC(C)CCn1c(CN2CCN(C(=O)c3ccco3)CC2)nc2c1c(=O)n(C)c(=O)n2C`: the outcome in assay [4] and in assay [5] was inactive. The outcome in assay [3] and in assay [2] was Active.
